What was measured:
Type in all cases: cell-based
ΔF508-CFTR [1] = molecular target: T1, ΔF508-CFTR (Homo sapiens, UniProt P13569, DEL508-508); experiment: CFTR cell surface levels using HRP-tagged ΔF508-CFTR expressing CFBE cells, intrinsic corrector capacity; design: % Activation: concentration or dose not given beside the values; settings: HRP-tagged ΔF508-CFTR expressing CFBE41o- cells, compound alone (intrinsic corrector capacity), 20 hours at 33° C.; for EC50: read-out: EC50
T1 construct: host or cells: CFBE41o-, doxycycline-inducible
How it was run: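 Surface ΔF508-CFTR was measured as HRP chemiluminescence from an extracellular-loop-4 tag, expressed as percent activity between DMSO and a […] corrector control.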

ΔF508-CFTR [2] = molecular target: T1, ΔF508-CFTR; experiment: CFTR cell surface levels using HRP-tagged ΔF508-CFTR expressing CFBE cells, in the presence of a co-corrector; settings: HRP-tagged ΔF508-CFTR CFBE cells, in the presence of 3 μM co-corrector; for EC50: read-out: EC50
How it was run: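 Chemiluminescent read-out of surface HRP (15 min, dark) after PBS washes. Activity is normalized as 100×(sample−DMSO)/(3 μM co-corrector alone−DMSO).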

CFTR ΔF508 = molecular target: T2, CFTR ΔF508 (Homo sapiens, UniProt P13569, DEL508-508); experiment: Chronic TECC assay, primary bronchial epithelial cells of CF patients homozygous for CFTR ΔF508 (corrector, co-corrector and potentiator); settings: chronic TECC, AUC = full area under the curve upon forskolin stimulation; for EC50: read-out: EC50 (nM) (AUC**); for % Activity at 1 μM (AUC**): test compound at 1 μM
T2 construct: bronchial epithelial cells isolated from CF patients homozygous for the CFTR ΔF508 mutation; McGill University; Asterand; University of North Carolina hAEC-CF; host or cells: primary human bronchial epithelial cells from CF patients homozygous for ΔF508, differentiated at air-liquid interface
How it was run: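 Primary bronchial epithelial cells from ΔF508-homozygous CF patients on collagen IV-coated Transwells were chronically treated with test compound plus corrector and potentiator, which were re-added before recording. Ieq was derived from PD and Rt in NaCl-Ringer, pH 7.4, at 37° C, with apical amiloride and bilateral forskolin, recorded every 2 min over 20 min. Ieq increase was normalized to controls, and EC50 was taken from per-well concentrations.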

T2 sequence (P13569 with tags, fused parts or gaps DEL508-508): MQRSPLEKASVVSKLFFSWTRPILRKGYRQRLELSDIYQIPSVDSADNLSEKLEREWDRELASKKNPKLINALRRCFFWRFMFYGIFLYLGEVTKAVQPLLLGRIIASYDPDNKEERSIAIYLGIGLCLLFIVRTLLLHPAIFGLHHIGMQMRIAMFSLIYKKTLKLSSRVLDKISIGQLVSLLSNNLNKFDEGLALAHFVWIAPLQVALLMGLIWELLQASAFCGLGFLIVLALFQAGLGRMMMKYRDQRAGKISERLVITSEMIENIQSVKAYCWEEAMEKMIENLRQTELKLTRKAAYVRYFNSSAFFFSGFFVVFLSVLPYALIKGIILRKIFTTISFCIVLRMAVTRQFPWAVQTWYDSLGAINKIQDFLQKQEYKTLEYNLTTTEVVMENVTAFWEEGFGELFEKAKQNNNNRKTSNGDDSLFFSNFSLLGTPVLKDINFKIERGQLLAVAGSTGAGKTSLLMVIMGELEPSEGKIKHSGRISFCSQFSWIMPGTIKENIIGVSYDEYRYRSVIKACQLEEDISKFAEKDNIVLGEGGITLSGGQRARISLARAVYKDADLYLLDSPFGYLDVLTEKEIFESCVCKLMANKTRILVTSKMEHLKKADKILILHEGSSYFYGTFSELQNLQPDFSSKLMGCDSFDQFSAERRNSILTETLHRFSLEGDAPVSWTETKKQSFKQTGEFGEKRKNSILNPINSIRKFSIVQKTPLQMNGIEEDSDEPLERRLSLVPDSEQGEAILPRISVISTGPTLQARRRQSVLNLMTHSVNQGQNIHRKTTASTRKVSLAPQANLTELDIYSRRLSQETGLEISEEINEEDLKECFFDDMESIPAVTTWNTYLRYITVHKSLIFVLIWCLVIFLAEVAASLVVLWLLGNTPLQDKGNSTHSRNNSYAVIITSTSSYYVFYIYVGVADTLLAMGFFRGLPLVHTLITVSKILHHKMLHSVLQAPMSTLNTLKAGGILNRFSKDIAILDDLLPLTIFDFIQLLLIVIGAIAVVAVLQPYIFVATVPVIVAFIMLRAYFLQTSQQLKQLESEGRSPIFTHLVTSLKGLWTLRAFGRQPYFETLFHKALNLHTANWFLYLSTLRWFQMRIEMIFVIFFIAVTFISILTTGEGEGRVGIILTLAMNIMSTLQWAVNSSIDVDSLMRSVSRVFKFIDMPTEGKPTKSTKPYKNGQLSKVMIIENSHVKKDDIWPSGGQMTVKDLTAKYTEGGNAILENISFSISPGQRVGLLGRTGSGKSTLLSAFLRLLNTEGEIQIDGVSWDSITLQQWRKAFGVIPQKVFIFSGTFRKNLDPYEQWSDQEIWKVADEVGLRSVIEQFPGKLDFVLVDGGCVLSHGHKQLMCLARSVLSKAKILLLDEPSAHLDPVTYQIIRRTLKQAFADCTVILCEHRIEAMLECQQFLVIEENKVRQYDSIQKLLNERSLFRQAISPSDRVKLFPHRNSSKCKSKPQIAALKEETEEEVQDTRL
T1 sequence (P13569 with tags, fused parts or gaps DEL508-508): as above

Compound | % Activation (ΔF508-CFTR [1]) [%] | EC50 (ΔF508-CFTR [1]) [nM] | % Activation (ΔF508-CFTR [2]) [%] | EC50 (ΔF508-CFTR [2]) [nM] | EC50 (CFTR ΔF508) [nM] | % Activity at 1 μM (AUC**) (CFTR ΔF508) [%] | % Activity at 3 μM (AUC**) (CFTR ΔF508; test compound at 3 μM) [%]
CS(=O)(=O)NC(=O)c1cc(N2CCC(CN3CCOCC3)CC2)c2c(C3CCC3)nn(-c3ccc(F)cc3)c2n1 [Compound 410, 3-cyclobutyl-1-(4-fluorophenyl)-N-(methanesulfonyl)-4-{4-[(morpholin-4-yl)methyl]piperidin-1-yl}-1H-pyrazolo[3,4-b]pyridine-6-carboxamide] | 337.42 | 213 | 529.58 | 82.4 | 1.58 | 233.3333 | 
COCCS(=O)(=O)NC(=O)c1cc(N2CCC(CCN3CCOCC3)CC2)c2c(C3CCC3)nn(-c3ccc(F)cc3)c2n1 [Compound 415, 3-cyclobutyl-1-(4-fluorophenyl)-N-(2-methoxyethanesulfonyl)-4-{4-[2-(morpholin-4-yl)ethyl]piperidin-1-yl}-1H-pyrazolo[3,4-b]pyridine-6-carboxamide] | 365.4 | 165 | 598 | 69.3 | 28.4 | 196.1812 | 
CN(C)S(=O)(=O)NC(=O)c1cc(N2CCC(CCN3CCOCC3)CC2)c2c(C3CCC3)nn(-c3ccc(F)cc3)c2n1 [Compound 416, 3-cyclobutyl-N-(dimethylsulfamoyl)-1-(4-fluorophenyl)-4-{4-[2-(morpholin-4-yl)ethyl]piperidin-1-yl}-1H-pyrazolo[3,4-b]pyridine-6-carboxamide] | 288 | 142 | 458.65 | 65 | 119 | 288.6036 | 
COCC1CCN(c2cc(C(=O)NS(=O)(=O)CC3COCCO3)nc3c2c(C2CCC2)nn3-c2ccccc2)CC1 (stereo not drawn) [Compound 417, 3-cyclobutyl-N-[(1,4-dioxan-2-yl)methanesulfonyl]-4-[4-(methoxymethyl)piperidin-1-yl]-1-phenyl-1H-pyrazolo[3,4-b]pyridine-6-carboxamide] | 307.45 | 190 | 539.75 | 91.9 |  | 256.6667 | 
CS(=O)(=O)NC(=O)c1cc(N2CCC(N3CCOCC3)CC2)c2c(C3CCC3)nn(C3CCCCC3)c2n1 [Compound 418, 3-cyclobutyl-1-cyclohexyl-N-(methanesulfonyl)-4-[4-(morpholin-4-yl)piperidin-1-yl]-1H-pyrazolo[3,4-b]pyridine-6-carboxamide] | 321.3 | 321 | 512.9 | 221 | 19.2 | 196.6667 | 
CN(C)S(=O)(=O)NC(=O)c1cc(N2CCC(N3CCOCC3)CC2)c2c(C3CCC3)nn(C3CCCCC3)c2n1 [Compound 420, 3-cyclobutyl-1-cyclohexyl-N-(dimethylsulfamoyl)-4-[4-(morpholin-4-yl)piperidin-1-yl]-1H-pyrazolo[3,4-b]pyridine-6-carboxamide] | 283.1 | 472 | 486.65 | 209 |  | 223.3333 | 
CC(C)Oc1nn(C2CCCCC2)c2nc(C(=O)NS(C)(=O)=O)cc(-c3ccc(C(=O)N4CCN(C)CC4)cc3)c12 [Compound 422, 1-cyclohexyl-N-(methanesulfonyl)-4-[4-(4-methylpiperazine-1-carbonyl)phenyl]-3-[(propan-2-yl)oxy]-1H-pyrazolo[3,4-b]pyridine-6-carboxamide] | 222.8 | 318 | 434.33 | 204 |  | 320 | 
CC(C)Oc1nn(C2CCCCC2)c2nc(C(=O)NS(=O)(=O)N(C)C)cc(-c3ccc(C(=O)N4CCN(C)CC4)cc3)c12 [Compound 423, 1-cyclohexyl-N-(dimethylsulfamoyl)-4-[4-(4-methylpiperazine-1-carbonyl)phenyl]-3-[(propan-2-yl)oxy]-1H-pyrazolo[3,4-b]pyridine-6-carboxamide] | 175.55 | 140 | 376.85 | 109 | 39.8 | 365 | 
CN(C)S(=O)(=O)NC(=O)c1cc(N2CCC(CN3CCOCC3)CC2)c2c(C3CCC3)nn(C3CCCCC3)c2n1 [Compound 424, 3-cyclobutyl-1-cyclohexyl-N-(dimethylsulfamoyl)-4-{4-[(morpholin-4-yl)methyl]piperidin-1-yl}-1H-pyrazolo[3,4-b]pyridine-6-carboxamide] | 249.25 | 244 | 453.88 | 92.2 |  |  | 462.0976
O=C(NS(=O)(=O)C1CCOC1)c1cc(N2CCC(N3CCOCC3)CC2)c2c(C3CCC3)nn(-c3ccc(F)cc3)c2n1 (stereo not drawn) [Compound 429, 3-cyclobutyl-1-(4-fluorophenyl)-4-[4-(morpholin-4-yl)piperidin-1-yl]-N-(oxolane-3-sulfonyl)-1H-pyrazolo[3,4-b]pyridine-6-carboxamide] | 252.1 | 378 | 422.8 | 205 | 83.8 | 180 | 
CS(=O)(=O)NC(=O)c1cc(N2CCC(CCN3CCOCC3)CC2)c2c(C3CCC3)nn(-c3ccc(F)cc3)c2n1 [Compound 431, 3-cyclobutyl-1-(4-fluorophenyl)-N-(methanesulfonyl)-4-{4-[2-(morpholin-4-yl)ethyl]piperidin-1-yl}-1H-pyrazolo[3,4-b]pyridine-6-carboxamide] | 344.95 | 109 | 568.8 | 47 |  | 280 | 
CC(C1CCN(c2cc(C(=O)NS(=O)(=O)N(C)C)nc3c2c(C2CCC2)nn3-c2ccc(F)cc2)CC1)N1CCOCC1 (stereo not drawn) [Compound 440, 3-cyclobutyl-N-(dimethylsulfamoyl)-1-(4-fluorophenyl)-4-{4-[1-(morpholin-4-yl)ethyl]piperidin-1-yl}-1H-pyrazolo[3,4-b]pyridine-6-carboxamide] | 334.8 | 129 | 543.55 | 55.4 | 2.98 | 696.6667 | 
CC(C)Oc1nn(C2CCCCC2)c2nc(C(=O)NS(C)(=O)=O)cc(-c3ccc(CN4CCN(C)CC4)cc3)c12 [Compound 441, 1-cyclohexyl-N-(methanesulfonyl)-4-{4-[(4-methylpiperazin-1-yl)methyl]phenyl}-3-[(propan-2-yl)oxy]-1H-pyrazolo[3,4-b]pyridine-6-carboxamide] | 196.1 | 350 | 393.27 | 196 | 206 | 236.6667 | 
CC(C1CCN(c2cc(C(=O)NS(C)(=O)=O)nc3c2c(C2CCC2)nn3-c2ccc(F)cc2)CC1)N1CCOCC1 (stereo not drawn) [Compound 445, 3-cyclobutyl-1-(4-fluorophenyl)-N-(methanesulfonyl)-4-{4-[1-(morpholin-4-yl)ethyl]piperidin-1-yl}-1H-pyrazolo[3,4-b]pyridine-6-carboxamide] | 393.1 | 111 | 671.25 | 59.1 |  | 406.6667 | 
COCCS(=O)(=O)NC(=O)c1cc(N2CCC(CN3CCOCC3)CC2)c2c(C3CCC3)nn(-c3ccc(F)cc3)c2n1 [Compound 447, 3-cyclobutyl-1-(4-fluorophenyl)-N-(2-methoxyethanesulfonyl)-4-{4-[(morpholin-4-yl)methyl]piperidin-1-yl}-1H-pyrazolo[3,4-b]pyridine-6-carboxamide] | 330.9 | 244 | 543.1 | 64.7 |  | 330 | 
O=C(NS(=O)(=O)CCO)c1cc(N2CCC(N3CCOCC3)CC2)c2c(C3CCC3)nn(-c3ccc(F)cc3)c2n1 [Compound 448, 3-cyclobutyl-1-(4-fluorophenyl)-N-(2-hydroxyethanesulfonyl)-4-[4-(morpholin-4-yl)piperidin-1-yl]-1H-pyrazolo[3,4-b]pyridine-6-carboxamide] | 258.2 | 477 | 431.1 | 181 |  | 116.8948 | 
CN(C)S(=O)(=O)NC(=O)c1cc(N2CCC(N3CCOCC3)CC2)c2c(C3CCC3)nn(-c3ccccc3)c2n1 [Compound 456, 3-cyclobutyl-N-(dimethylsulfamoyl)-4-[4-(morpholin-4-yl)piperidin-1-yl]-1-phenyl-1H-pyrazolo[3,4-b]pyridine-6-carboxamide] | 268.4 | 158 | 457.7 | 93.3 |  | 261.1621 | 

Reference: patent US10259810B2, “N-sulfonylated pyrazolo[3,4-b]pyridin-6-carboxamides and method of use” (AbbVie S.à.r.l., priority 2015, dated 2019)
